Results published in ChEMBL document CHEMBL1141732, “Croton ruizianus: platelet proaggregating activity of two new pregnane glycosides” (J Nat Prod, 1998).

How the values were obtained:
Platelet [1] = test: Induction of human washed-platelet aggregation at 232 ug/test tube after 1 min by light transmission aggregometer; assay type: functional
Platelet [2] = test: Induction of human washed-platelet aggregation at 20 ug/test tube after 4 mins by light transmission aggregometer; assay type: functional
[3] = Cytotoxicity against human washed-platelet assessed as LDH release after 5 mins by sonication method; assay type: cell-based
Platelet [4] = test: Induction of human washed-platelet aggregation at 20 ug/test tube after 1 min by light transmission aggregometer; assay type: functional
Platelet [5] = test: Induction of human washed-platelet aggregation at 232 ug/test tube after 4 mins by light transmission aggregometer; assay type: functional
Platelet [6] = test: Induction of human washed-platelet aggregation at 82 ug/test tube after 4 mins by light transmission aggregometer; assay type: functional
Platelet [7] = test: Induction of human washed-platelet aggregation at 82 ug/test tube after 1 min by light transmission aggregometer; assay type: functional
Platelet [8] = test: Induction of human washed-platelet aggregation at 85 ug/test tube after 4 mins by light transmission aggregometer; assay type: functional
Platelet [9] = test: Induction of human washed-platelet aggregation at 85 ug/test tube after 1 min by light transmission aggregometer; assay type: functional
Platelet [10] = test: Induction of human washed-platelet aggregation at 273 ug/test tube after 4 mins by light transmission aggregometer; assay type: functional
Platelet [11] = test: Induction of human washed-platelet aggregation at 273 ug/test tube after 1 min by light transmission aggregometer; assay type: functional

| SMILES | Activity (Platelet [1]) [%] | Activity (Platelet [2]) [%] | Activity [3] | Activity (Platelet [4]) [%] | Activity (Platelet [5]) [%] | Activity (Platelet [6]) [%] | Activity (Platelet [7]) [%] | Activity (Platelet [8]) [%] | Activity (Platelet [9]) [%] | Activity (Platelet [10]) [%] | Activity (Platelet [11]) [%] |
| --- | --- | --- | --- | --- | --- | --- | --- | --- | --- | --- | --- |
| CO[C@@H]1[C@@H](O)[C@H](O[C@H]2CC[C@@]3(C)[C@@H](CC[C@@H]4[C@@H]3CC[C@]3(C)[C@@H](C(C)=O)[C@H](O)[C@@H](O)[C@]43O)C2)O[C@H](C)[C@H]1O[C@@H]1C[C@@H](O)[C@@H](O[C@@H]2C[C@H](OC)[C@@H](O[C@H]3C[C@@H](OC)[C@H](O)[C@@H](C)O3)[C@H](C)O2)[C@H](C)O1 | 18.3 | 12.5 | <= 3.8% | 12.5 | 54.5 | – | – | – | – | – | – |
| COC1=C[C@]23CCN(C)[C@H](Cc4cc(OC)c(O)cc42)C3=CC1=O [FLAVINANTINE] | – | 3.5 | <= 3.8% | 2.1 | – | 17.5 | 6.3 | – | – | – | – |
| COC1=C[C@]23CCN(C)[C@H](Cc4cc(OC)c(OC)cc42)C3=CC1=O [O-METHYLFLAVINANTINE] | – | 0 | <= 3.8% | 0 | – | – | – | 8.8 | 3.1 | – | – |
| CO[C@@H]1[C@@H](O)[C@H](O[C@H]2CC[C@@]3(C)[C@@H](CC[C@@H]4[C@@H]3CC[C@]3(C)[C@@H](C(C)=O)[C@H](O)[C@@H](O)[C@]43O)C2)O[C@H](C)[C@H]1O[C@@H]1C[C@@H](O)[C@@H](O[C@@H]2C[C@H](OC)[C@@H](O[C@H]3C[C@@H](OC)[C@H](O[C@@H]4O[C@H](CO)[C@@H](O)[C@H](O)[C@H]4O)[C@@H](C)O3)[C@H](C)O2)[C@H](C)O1 | – | 9.4 | <= 3.8% | 5.3 | – | – | – | – | – | 42.3 | 14.1 |
